Broadly, the Ki is the equilibrium dissociation constant of an inhibitor or competing ligand from its target. In general, EC50 refers to the concentration that produces a half-maximal response.

From patent US9073931B2, “Liver X receptor modulators” (Vitae Pharmaceuticals, Inc., priority 2012, dated 2015) come the findings set out here.

Like-named read-outs stand apart in the source and are kept apart here. Where only a bound is given, the exact number is not on record here.

One assay deals with LXR α LBD protein (Homo sapiens (Human), UniProt Q13133). Briefly: LXR α radioligand binding assay (SPA, [3H]T0901317 competition).
Chain of LXR α LBD protein (Q13133 209-447): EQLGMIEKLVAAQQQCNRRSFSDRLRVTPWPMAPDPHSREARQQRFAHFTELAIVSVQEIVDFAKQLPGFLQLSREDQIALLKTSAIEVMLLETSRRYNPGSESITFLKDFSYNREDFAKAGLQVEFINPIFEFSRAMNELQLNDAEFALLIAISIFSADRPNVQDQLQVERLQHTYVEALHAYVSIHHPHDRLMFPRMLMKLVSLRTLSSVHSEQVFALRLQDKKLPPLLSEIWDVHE
A further assay concerns the target LXR β LBD protein (Homo sapiens (Human), UniProt P55055). The assay is described as follows: LXR β radioligand binding assay (SPA, [3H]T0901317 competition). Conditions: competition with 15 nM [3H]T0901317, LXRβ LBD.
A further assay deals with LBD of LXRα (Homo sapiens (Human), UniProt Q13133). Briefly: LXR luciferase transcriptional reporter gene assay, LXRα. It is filed as cell-based. To be noted: HEK293 cells, Gal4-LXRα LBD, 16 h, read-out: LXRα CELL EC50.
Chain of LBD of LXRα (Q13133 209-447): as above
Assay [1] concerns the target T1, LBD of LXRβ (Homo sapiens (Human), UniProt P55055). Briefly: cell-based.
The target in assay [2] is T1, LBD of LXRβ.
[3] abbreviates: competition with 15 nM [3H]T0901317, LXRα LBD.

T1 sequence (P55055 222-460): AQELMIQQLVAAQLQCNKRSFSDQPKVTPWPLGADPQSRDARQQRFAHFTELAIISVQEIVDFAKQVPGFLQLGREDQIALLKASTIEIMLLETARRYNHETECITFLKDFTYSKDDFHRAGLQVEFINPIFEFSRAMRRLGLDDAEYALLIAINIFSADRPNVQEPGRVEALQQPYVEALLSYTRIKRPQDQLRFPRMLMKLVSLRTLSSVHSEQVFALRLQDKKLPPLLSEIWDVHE
Chain of LXR β LBD protein (P55055 222-460): as above

Consider `CC(C)[C@H]1c2nc3cc(CO)c(S(C)(=O)=O)cc3n2CCN1c1ncc(C(=O)O)c(C(F)(F)F)n1` (single isomer, unassigned) [Compound E14b], for which the results for the inhibition constant (Ki) on LXR α LBD protein (read-out: LXRα BINDING Ki) and on LXR β LBD protein were more than 3.33 µM and more than 2.5 µM, respectively. In addition, the EC50 at LBD of LXRα and on LBD of LXRβ [1] was more than 20 µM throughout.
Consider `CNC(=O)c1cnc(N2CCn3c(nc4cc(CO)c(S(C)(=O)=O)cc43)[C@H]2C(C)C)nc1C(F)(F)F` (single isomer, unassigned) [Compound E16a], for which, at LXR α LBD protein (read-out: LXRα BINDING Ki), the inhibitory constant (Ki) is more than 3.33 µM. The 50% effective concentration (EC50) at LBD of LXRα was more than 20 µM.
Taken in the same sequence, the figures for `CNC(=O)c1cnc(N2CCn3c(nc4cc(CO)c(S(C)(=O)=O)cc43)[C@@H]2C(C)C)nc1C(F)(F)F` (single isomer, unassigned) [Compound E16b] were more than 3.33 µM and more than 20 µM.
On to `Cc1nc(N2CCn3c(nc4cc(CO)c(S(C)(=O)=O)cc43)[C@H]2C(C)C)ncc1CO` [Compound E19, (R)-(2-(8-(hydroxymethyl)-1-isopropyl-7-(methylsulfonyl)-3,4-dihydrobenzo[4,5]imidazo[1,2-a]pyrazin-2(1H)-yl)-4-methylpyrimidin-5-yl)methanol], for which the inhibition constant Ki is more than 3.33 µM at LXR α LBD protein (setting [3]) and more than 2.5 µM at LXR β LBD protein. Moreover, the half-maximal effective concentration (EC50) at LBD of LXRα and on LBD of LXRβ [1] was more than 20 µM throughout.
Turning to `CC(C)C1c2nc3ccc(S(C)(=O)=O)cc3n2CCN1c1ncc(C(N)=O)c(C(F)(F)F)n1` (racemic) [Compound E5, 2-(1-isopropyl-7-(methylsulfonyl)-3,4-dihydrobenzo[4,5]imidazo[1,2-a]pyrazin-2(1H)-yl)-4-(trifluoromethyl)pyrimidine-5-carboxamide], the Ki is more than 3.33 µM at LXR α LBD protein (setting [3]) and more than 2.5 µM on LXR β LBD protein. Besides, the values for the EC50 on LBD of LXRα and on LBD of LXRβ [1] were more than 20 µM and 2.69 µM, respectively.
As for `CC(C)[C@@H]1c2nc3cc(CO)c(S(C)(=O)=O)cc3n2CCN1c1ncc(C(=O)O)c(C(F)(F)F)n1` (single isomer, unassigned) [Compound E14a], the values for the inhibition constant Ki at LXR α LBD protein (read-out: LXRα BINDING Ki) and on LXR β LBD protein were more than 3.33 µM and more than 2.5 µM, respectively. For the same compound, the concentration for a half-maximal effect (EC50) at LBD of LXRα was more than 20 µM; on LBD of LXRβ [1], 7.54 µM.
The compound `CC(O)c1cnc(N2CCn3c(cc4ccc(S(C)(=O)=O)cc43)C2C(C)C)nc1C(F)(F)F` (single isomer, unassigned) [Compound E24a, 1-(2-(1-isopropyl-7-(methylsulfonyl)-3,4-dihydropyrazino[1,2-a]indol-2(1H)-yl)-4-(trifluoromethyl)pyrimidin-5-yl)ethanol] showed an inhibition constant Ki at LXR β LBD protein of 0.007 µM. At LBD of LXRβ [2], this compound had a concentration for a half-maximal effect (EC50) of 0.134 µM.
Taken in the same sequence, the figures for `CC(C)[C@H]1c2cc3ccc(S(C)(=O)=O)cc3n2CCN1c1ncc(CO)c(C(F)(F)F)n1` [Compound E25b, (S)-(2-(1-isopropyl-7-(methylsulfonyl)-3,4-dihydropyrazino[1,2-a]indol-2(1H)-yl)-4-(trifluoromethyl)pyrimidin-5-yl)methanol] were more than 2.5 µM and 10.8 µM.
Taken in the same sequence, the figures for `CC(C)C1c2cc3cc(CO)c(S(C)(=O)=O)cc3n2CCN1c1ncc(C(C)(C)O)c(C(F)(F)F)n1` (single isomer, unassigned) [Compound E27a, 2-(2-(8-(hydroxymethyl)-1-isopropyl-7-(methylsulfonyl)-3,4-dihydropyrazino[1,2-a]indol-2(1H)-yl)-4-(trifluoromethyl)pyrimidin-5-yl)propan-2-ol] were 0.002 µM and 0.01 µM.
In the case of `CCOC(=O)c1cnc(N2CCn3c(nc4ccc(S(C)(=O)=O)cc43)C2C(C)C)nc1C(F)(F)F` (racemic) [Compound E3, Ethyl 2-(1-isopropyl-7-(methylsulfonyl)-3,4-dihydrobenzo[4,5]imidazo[1,2-a]pyrazin-2(1H)-yl)-4-(trifluoromethyl)pyrimidine-5-carboxylate], the values for the Ki on LXR α LBD protein (setting [3]) and on LXR β LBD protein were more than 3.33 µM and 1.16 µM, respectively. Besides, the half-maximal effective concentration (EC50) on LBD of LXRα stood at 17.3 µM; at LBD of LXRβ [1] it was 4.62 µM.
